Data from patent US20180311342A1, “IMMUNOSTIMULATING AGENT” (AJINOMOTO CO., INC., priority 2017, published 2018).

Legend:
Format in all cases: in vivo, BALB/c mice
[1] = test system: anti-OVA-specific IgG2a subclass antibody; assay: Adjuvant activity test: anti-OVA-specific IgG2a subclass antibody in serum of OVA-immunized mice (ELISA); settings: Experimental Example 4: after secondary immunization; OVA 5 μg + compound 0.256 μmol dissolved in saline (no αCD), dorsal-subcutaneous; compared to OVA single administration group
[2] = test system: anti-OVA-specific IgG1 subclass antibody; assay: Adjuvant activity test: anti-OVA-specific IgG1 subclass antibody in serum of OVA-immunized mice (ELISA); settings: Experimental Example 4: after secondary immunization; OVA 5 μg + compound 0.256 μmol dissolved in saline (no αCD), dorsal-subcutaneous; compared to OVA single administration group
[3] = test system: anti-OVA-specific IgG1 subclass antibody; assay: as above; settings: after secondary immunization, serum 2 weeks later; OVA 5 μg + compound 0.256 μmol in 5% αCD-added saline (Addavax mixed with saline at 1:1), dorsal-subcutaneous; compared to OVA single administration group
[4] = test system: anti-OVA-specific IgE antibody; assay: Allergy inducing activity test: anti-OVA-specific IgE antibody in serum of OVA-immunized mice (DS mouse IgE ELISA (OVA) kit); settings: for anti-OVA-specific IgE antibody production: after secondary immunization, dorsal-subcutaneous; for allergy inducing activity as compared to Addavax: conclusion from IgE after secondary immunization, compound in 5% αCD-added saline
Protocol: 8-Week-old female BALB/c mice were divided into groups (N=6), and each group was primarily immunized by dorsal-subcutaneous administration of (1) ovalbumin (OVA) (5 μg) dissolved in saline as an antigen (OVA single administration group), (2) OVA 5 μg and Addavax™ (mixed with saline at 1:1) dissolved in saline (Addavax™ administration group) as positive control adjuvant, (3) OVA 5 μg and SZ137 0.256 μmol dissolved or dispersed in 5% α-cyclodextrin (hereinafter to be simply referred to as αCD)-added saline (SZ137 administration group), (4) OVA (5 μg) and SZ138 (0.256 μmol) dissolved or dispersed in 5% αCD-added saline (SZ138 administration group), (5) OVA (5 μg) and SZ142 (0.256 μmol) dissolved or dispersed in 5% αCD-added saline (SZ142 administration group), (6) OVA (5 μg) and SZ144 (0.256 μmol) dissolved or dispersed in 5% αCD-added saline (SZ144 administration group), (7) OVA (5 μg) and SZ145 (0.256 μmol) dissolved or dispersed in 5% αCD-added saline (SZ145 administration group), (8) OVA (5 μg) and SZ146 (0.256 μmol) dissolved or dispersed in 5% αCD-added saline (SZ146 administration group), (9) OVA (5 μg) and SZ147 (0.256 μmol) dissolved or dispersed in 5% αCD-added saline (SZ147 administration group), (10) OVA (5 μg) and SZ148 (0.256 μmol) dissolved or dispersed in 5% αCD-added saline (SZ148 administration group), each per mouse. Two week later, the secondary immunization was carried out by dorsal-subcutaneous administration of solutions or dispersions similar to those of the above-mentioned (1)-(10) again. Two weeks from the secondary immunization, the whole blood was extracted under anesthesia, and the obtained serum sample was measured for anti-OVA-specific IgG1 subclass antibody, anti-OVA-specific IgG2a subclass antibody, and anti-OVA-specific IgE antibody.
The measurement method of the anti-OVA-specific IgE antibody in Experimental Example 1 and the following Experimental Examples 2-5, 8-10 is as follows.
DS mouse IgE ELISA (OVA) kit manufactured by DS Pharma Biomedical Co., Ltd. was used. The protocol is briefly shown below.
The serum sample and a standard reagent for drawing an analytical curve are diluted with a buffer and, after stirring, left standing at room temperature for 10 min. The sample and the standard solution are added to a plate bound with an IgE capture antibody in advance and, after stirring, the mixture is left standing at room temperature for 60 min. The mixture is washed three times with wash, HRP-labeled OVA is added, and the mixture is left standing at room temperature for 30 min. The mixture is washed three times with wash, a substrate solution is added, and the mixture is left standing in dark at room temperature for 30 min. A reaction quenching liquid is added, the mixture is stirred, and the absorbance (OD Value=450 nm) is immediately measured.
The standard used is one attached to the kit, the standard curve is drawn from the measured OD Value, and the concentration is calculated. […]

[5] = test system: anti-OVA-specific IgG2a subclass antibody; assay: Adjuvant activity test: anti-OVA-specific IgG2a subclass antibody in serum of OVA-immunized mice (ELISA); settings: after secondary immunization, serum 2 weeks later; OVA 5 μg + compound 0.256 μmol in 5% αCD-added saline (Addavax mixed with saline at 1:1), dorsal-subcutaneous; compared to OVA single administration group
[6] = OVA 5 μg + compound 0.256 μmol in 5% αCD-added saline (Addavax mixed with saline at 1:1), compared to OVA single administration group
[7] = OVA 5 μg + compound 0.256 μmol in 5% αCD-added saline, compared to Addavax administration group

Row | Compound | anti-OVA-specific IgG2a subclass antibody production [1] | anti-OVA-specific IgG1 subclass antibody production [2] | anti-OVA-specific IgG1 subclass antibody production [3] | anti-OVA-specific IgE antibody production [4, 6] | anti-OVA-specific IgE antibody production [4, 7] | allergy inducing activity as compared to Addavax [4] | anti-OVA-specific IgG2a subclass antibody production [5]
1 | CCCCCCCCCCCCCCCC(=O)N[C@@H](CCCNC(=N)N)C(=O)NCCCCCCCCCCCC.Cl [SZ111, N-[(1S)-1-(dodecylcarbamoyl)-4-guanidino-butyl]hexadecanamide hydrochloride] | significantly increased | significantly increased | significantly increased | did not increase significantly | lower | may have a lower allergy inducing activity | significantly increased
2 | CCCCCCCCCCCCCCCCCCCCCC(=O)N[C@@H](CC(C)C)C(=O)NCCCCCCCCCCC [SZ142, N-[(1S)-3-methyl-1-(undecylcarbamoyl)butyl]docosanamide] | – | – | showed a tendency to increase | an increase in the anti-OVA-specific IgE antibody production was not observed | – | may have a lower allergy inducing activity | showed a tendency to increase
3 | CCCCCCCCCCCCCCCC(=O)N[C@@H](CC(C)C)C(=O)NCCCCCCCCCCCC [SZ144, N-[(1S)-1-(dodecylcarbamoyl)-3-methyl-butyl]hexadecanamide] | – | – | showed a tendency to increase | an increase in the anti-OVA-specific IgE antibody production was not observed | – | may have a lower allergy inducing activity | showed a tendency to increase
4 | CCCCCCCCCCCCCCCCCCCCCC(=O)NCC(C)(C)C(=O)NCCCCCCCCCCCC [SZ148, N-[3-(dodecylamino)-2,2-dimethyl-3-oxo-propyl]docosanamide] | – | – | showed a tendency to increase | an increase in the anti-OVA-specific IgE antibody production was not observed | – | may have a lower allergy inducing activity | showed a tendency to increase
5 | CCCCCCCCCCCCCCCC(=O)N[C@@H](CCCCN)C(=O)NCCCCCCCCCCCC.Cl [SZ153, N-[(1S)-5-amino-1-(dodecylcarbamoyl)pentyl]hexadecanamide hydrochloride] | – | – | significantly increased | an increase in the anti-OVA-specific IgE antibody production was not observed | – | may have a lower allergy inducing activity | significantly increased
6 | CCCCCCCC/C=C/CCCCCCCC(=O)N[C@@H](CCCNC(=N)N)C(=O)NCCCCCCCCCCCC.Cl [SZ161, (E)-N-[(1S)-1-(dodecylcarbamoyl)-4-guanidino-butyl]octadeca-9-enamide hydrochloride] | – | – | significantly increased | – | lower | allergy inducing activity equivalent to or not more than that of Addavax™ | significantly increased
7 | CCCCCCCCCCCCCCCCCCCCCC(=O)N[C@@H](CCCNC(=N)N)C(=O)NCCCCCCC.Cl [SZ163, N-[(1S)-4-guanidino-1-(heptylcarbamoyl)butyl]docosanamide hydrochloride] | – | – | tended to increase | – | lower | allergy inducing activity equivalent to or not more than that of Addavax™ | tended to increase
8 | CCCCCCCCCCCCCCCCCCCCCC(=O)N[C@@H](CCCN)C(=O)NCCCCCCCCCCCC.Cl [SZ165, N-[(1S)-4-amino-1-(dodecylcarbamoyl)butyl]docosanamide hydrochloride] | – | – | tended to increase | – | lower | allergy inducing activity equivalent to or not more than that of Addavax™ | tended to increase
9 | CCCCCCCCCCCCCCCCCCCCCC(=O)N[C@@H](CCCCNC(=N)N)C(=O)NCCCCCCCCCCCC.Cl [SZ166, N-[(1S)-1-(dodecylcarbamoyl)-5-guanidino-pentyl]docosanamide hydrochloride] | – | – | tended to increase | – | lower | allergy inducing activity equivalent to or not more than that of Addavax™ | tended to increase
10 | CCCCCCCCCCCCCCCCCCCCCC(=O)N[C@@H](CCCCNC(C)=O)C(=O)NCCCCCCCCCCCC [SZ167, N-[(1S)-5-acetamide-1-(dodecylcarbamoyl)pentyl]docosanamide] | – | – | tended to increase | – | lower | allergy inducing activity equivalent to or not more than that of Addavax™ | tended to increase
11 | CCCCCCCCCCCCCCCCNC(=O)N[C@@H](CCCNC(=N)N)C(=O)NCCCCCC.Cl [SZ168, (2S)-5-guanidino-2-(hexadecylcarbamoylamino)-N-hexyl-pentanamide hydrochloride] | – | – | tended to increase | – | lower | allergy inducing activity equivalent to or not more than that of Addavax™ | tended to increase
